Measurements reported in paper PMC10992144, “Construction of fatty acid derivatives from rubber seed oil as α-glucosidase inhibitors based on rubber seed oil” (Bioresources and Bioprocessing, 2022).
Like-named read-outs stand apart in the source and are kept apart here.

Key:
[1] = biological target: T1, α-Glucosidase from recombinant yeast (Saccharomyces cerevisiae, UniProt P53341); assay: biochemical; format: biochemical; settings: for Inhibitory score: 1/IC50, Table 4, S4
T1 construct: purchased Shanghai yuanye Bio-Technology Co. Ltd; host or cells: recombinant yeast
T1 sequence (P53341 whole entry): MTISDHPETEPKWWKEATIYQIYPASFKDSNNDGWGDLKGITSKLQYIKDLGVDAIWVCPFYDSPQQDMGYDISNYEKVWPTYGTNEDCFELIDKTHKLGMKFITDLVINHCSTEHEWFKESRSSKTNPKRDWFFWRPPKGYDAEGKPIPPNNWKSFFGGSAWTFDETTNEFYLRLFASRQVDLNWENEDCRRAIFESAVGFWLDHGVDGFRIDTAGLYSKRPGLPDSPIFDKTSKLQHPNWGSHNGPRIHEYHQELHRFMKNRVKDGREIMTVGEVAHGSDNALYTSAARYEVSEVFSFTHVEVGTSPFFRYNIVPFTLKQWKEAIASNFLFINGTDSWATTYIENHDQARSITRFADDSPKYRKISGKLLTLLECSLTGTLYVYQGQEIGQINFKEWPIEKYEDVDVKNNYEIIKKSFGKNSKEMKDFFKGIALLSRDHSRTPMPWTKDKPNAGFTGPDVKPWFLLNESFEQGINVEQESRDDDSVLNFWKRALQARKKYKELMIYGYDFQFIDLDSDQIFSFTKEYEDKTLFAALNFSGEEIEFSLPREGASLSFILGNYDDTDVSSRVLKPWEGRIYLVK
Protocol: Fatty acids and their derivates were diluted in 0.1 M, pH = 6.9 phosphate buffer with 0.5% (v/v) DMSO as cosolvent, to prepare […] sample solutions. 50 μL sample solution and 100 μL 0.5 U α-glucosidase (prepared in the same phosphate buffer) were added into 1.5-mL plastic tubes, incubated at 37 °C, 10 min. Then, 50 μL 5 mM α-PNPG (prepared in the same buffer) was added into the plastic tube, incubated for another 10 min at 37 °C. At the end, 1 M Na2CO3 was added to terminate the reaction.
The Inhibitory score measures the inhibitory intensity of each sample on α-glucosidase, calculated by 1/IC50. Data were subjected to the one-way ANOVA analysis by SPSS 23.0, shown as mean ± SD (n = 3).

α-glucosidase = settings: result in words; ref Paul et al. ([2010]); cited from earlier work
[2] = 0.1 M phosphate buffer pH 6.9, 0.5% DMSO, 37 °C, α-PNPG, mean ± SD (n = 3), read-out: IC50

Structure (SMILES)	Inhibitory score [1]	IC50 [1, 2] [nM]	further results
CCCCC/C=C\CC(O)CCCCCCCCC(=O)O (stereo not drawn) [10-HOA, 10-hydroxy-cis-12-octadecenoic acid]	2.58	–	IC50 [1]: 390 ± 10 nM
CCCCCCCCC(O)CCCCCCCCC(=O)O (stereo not shown) [10-HSA, 10-hydroxystearic acid]	0.58	1710 ± 20	–
CCCCCCCCC(O)/C=C/CCCCCCC(=O)O (stereo not shown) [10-hydroxy-8 (E)-octadecenoic acid]	–	–	inhibition of α-glucosidase (α-glucosidase): useful inhibitor
CCCCCCCC/C=C\CCCCCCCC(=O)OCCCC [Butyl, butyl oleate]	0.43	2340 ± 110	–
CCCCCCCCCC(=O)O [C10:0, capric acid]	–	114000 ± 2370	–
CCCCCCCCCCCC(=O)O [C12:0, lauric acid]	–	135000 ± 6430	–
CCCCCCCCCCCCCC(=O)O [C14:0, myristic acid]	–	56200 ± 2810	–
CCCCCCCCCCCCCCCC(=O)O [C16:0, palmitic acid]	–	13970 ± 10	–
CCCCC/C=C\C/C=C\CCCCCCCC(=O)O [C18:2, linoleic acid]	–	–	IC50 [1]: 600 ± 10 nM
CC/C=C\C/C=C\C/C=C\CCCCCCCC(=O)O [C18:3, α-linolenic acid]	–	–	IC50 [1]: 540 ± 10 nM
CCCCCCCC/C=C\CCCCCCCC(=O)OCCCCCC [Hexyl, hexyl oleate]	0.24	4160 ± 210	–
CCCCCCCC/C=C\CCCCCCCC(=O)OC(C)C [Isopropyl, isopropyl oleate]	1.67	600 ± 10	–
CCCCCCCC/C=C\CCCCCCCC(=O)OCCCCCCCC [Octyl, octyl oleate]	0.31	3250 ± 80	–
CCCCCCCC/C=C\CCCCCCCC(=O)OCCCCC [Pentyl, amyl oleate]	0.31	3210 ± 170	–
CCCCCCCC/C=C\CCCCCCCC(=O)OCCC [Propyl, propyl oleate]	0.57	1750 ± 40	–
CCCCCCCC/C=C\CCCCCCCC(=O)O [cis-C18:1, Oleic acid]	–	810 ± 40	Inhibitory score ([1]; listed as OA): 1.23
